Measured values from PMC7894522, “Structure Based Design of Bicyclic Peptide Inhibitors of RbAp48” (Angewandte Chemie (International Ed. in English), 2020).
Like-named read-outs stand apart in the source and are kept apart here. Starred links: 1 amine or outer side, 2 acyl side, 3 side chain; linkers in the order of their positions; H or OH if unused. Positions of bridges follow the written chain, without caps; N, C: chain ends. Residues, ends and D or L forms follow the SMILES beside them. *: point of attachment. TBMB = c1c(C[*:1])cc(C[*:3])cc1C[*:2]; X1 = [N-]=[N+]=NCCOCCOCCOCC(=O)*

Legend:
RbAp48 [1] = target: T1, RbAp48 (Homo sapiens, UniProt Q09028); assay: Competitive fluorescence polarization (FP) assay using complex of peptide 1 and RbAp48; type: binding; parameters: Full length RbAp48 was cloned; His tag followed by 3C cleavage site (N, cleaved yes); made in house; host or cells: Sf9 insect cells
Outline: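 Sf9-expressed full-length RbAp48 (tag cleaved), 15 nM, displaced from 1 nM fluorescent peptide tracer in 20 mM Tris-HCl pH 7.5, 150 mM NaCl, 0.01% Tween-20. Read by FP (ex 485/em 535 nm) after 30 min at room temperature.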

RbAp48 [2] = target: T1, RbAp48; assay: Pull-down with peptides immobilized on DBCO beads from MDA-MB-231 nuclear lysate; type: binding; parameters: RbAp48 was pulled down from nuclear lysate of MDA‐MB‐231 cells; endogenous in cells; host or cells: MDA-MB-231 nuclear lysate; details: 60 µM probe immobilized on DBCO beads, 1.5 h at 4°C, immunoblot
Method: To evaluate whether peptide 33 interacts with RbAp48 in a more complex biological environment we modified the N‐terminus with a linker bearing a terminal azide (47, see Table 1, supplemental Figure 4). The peptides were immobilized on DBCO‐beads via copper‐free click chemistry and exposed to MDA‐MB‐231 nuclear lysate. As a negative control an azide modified scrambled peptide sequence (48) with affinity >10 μM was used.
Nuclear lysate of MDA-MB-231 cells was prepared using a Subcellular Protein Fractionation Kit (Thermo Scientific) according to the manufacturer’s instructions. DBCO agarose beads (100 µl) were washed with buffer A ( 50 mM Tris-HCl, 150 mM NaCl, 1 mM DTT, 1% (v/v) Triton X -100, pH 7.4, cOmplete™ EDTA-free Protease Inhibitor Cocktail ) three times. The beads were incubated overnight at 4°C in a solution containing either 47, 48 or no probe (500 µl containing 60 µM probe). After immobilization, the beads were washed again with buffer A three times followed by incubation with the nuclear lysate (500 µl) and incubated for 1.5 h at 4°C. After incubat ion beads were washe d with buffer B (50 mM Tris-HCl, 500 mM NaCl, 1 mM DTT, 1% (v/v) Triton X -100, pH 7.4, cOmplete™ EDTA - free Protease Inhibitor Cocktail ) three times. Protein was eluted by adding SDS sample buffer and loaded the mixture directly on SDS -page gel for analysis. […]

U2OS cells = assay: Morphological cell painting assay; type: cell-based; details: U2OS cells, 20 h, 579 parameters, fraction of significantly changed parameters vs DMSO; 10, 3 or 1 µM
Source text: Encouraged by the promising results from the pulldown experiment, and in order to get insight into bioactivity and possible mode of action, we analyzed peptide 33 in a morphological cell painting assay. The cell painting assay is a target agnostic assay which determines a cells morphological profile after treatment with a compound of interest and compares it to the profiles of a set of reference compounds. ^[22] By identifying reference compounds with a similar profile a hypothesis of the compounds mode of action can be generated based on their annotated targets. ^[23] U2OS cells were treated with our compound and 579 parameters were analyzed. […] We therefore synthesized a variant modified with an N‐terminal TAT sequence to enhance its permeability (compound 49, see Table 1 and Supplemental Figure 4). ^[24] […] Applying compound 49 to the cell painting assay led to an induction of 5.9 % and the corresponding profile was compared to the set of 3000 reference compounds. […] To validate this hypothesis, we exposed U2OS cells to compound 49 and evaluated the levels of p53 by Western blot. […] The exact mechanism by which the compounds elevate levels of p53 requires further investigation. However, it has previously been shown that the NuRD complex, of which RbAp48 is a core component, is able to deacetylate p53 and thereby modulate its stability. ^[26] The effect is mediated by the MTA family of proteins from which the compounds described here are derived. […]
The described assay follows closely the method described by Bray et al. Initially, 5 µl U2OS medium were added to each well of a 384 -well plate (PerkinElmer CellCarrier -384 Ultra). Subsequently, U2OS cell were seeded with a density of 1600 cells per well in 20 µl medium. The plate was incubated for 10 min at the ambient temperatu re, followed by an a dditional 4 h incubation (37 °C, 5 % CO2). Compound treatment was performed with the Echo 520 acoustic dispenser (Labcyte) at final concentrations of 10 µM, 3 µM or 1 µM. Incubation with compound was performed for 20 h (37 °C, 5 % CO2). Subsequently, mitoc hondria were stained with Mito Tracker Deep Red (Thermo Fisher Scientific, Cat. No. M22426). The Mito Tracker Deep Red stock solution (1 mM) was diluted to a final concentration of 100 nM in prewarmed medium. The medium was removed fr om the plate leaving 1 0 µl residual volume and 25 µl of the Mito Tracker solution were added to each well. 22 The plate was incubated for 30 min in darkness (37 °C, 5 % CO2). To fix the cells 7 µl of 18.5 % formaldehyde in PBS were added, resulting in a fi nal formaldehyde conce ntration of 3.7 %. Subsequently, the plate was incubated for another 20 min in darkness (RT) and washed three times with 70 µl of PBS. (Biotek Washer Elx405). Cells were permeabilized by addition of 25 µl 0.1 % Triton X -100 to each well, followed by 15 min incubation (RT) in darkness. The cells were washed three times with PBS leaving a final volume of 10 µl. To each well 25 µl of a staining solution were added, which contains 1 % BSA, 5 µl/mL Phalloidin (Thermo Fisher Scientific, A123 81), 25 µg/ml Concanav alin A (Thermo Fisher Scientific, Cat. […]
conjugate (Thermo Fisher Scientific, Cat. No. W11262) and […] SYTO 14 solution (Thermo Fisher Scientific, Cat. No. S7576). The plate is incubated for 30 min (RT) in darkness and washed three times with 70 µl PBS. After the final washing step the PBS was not aspirated. The plates were sealed and centrifuged for 1 min at 500 rpm.
The plates were prepare d in triplicates with shifted layouts to reduce plate effects and imaged using a Micro XL High-Content Screening System (Molecular Devices) in 5 channels (DAPI: Ex350 -400/ Em410- […]
The generated images were processed with the CellProfiler package (https://cellprofiler.org/, version 3.0.0) on a computing cluster of the Max Planck Society to extract 1716 cell features (parameters) per microscope site. The data was then further aggregated as medians per well (9 sites -> 1 well), then […]

p53 = p53 expression level assay (western blot); type: cell-based; details: U2OS cells, 10 µM, 24 h, p53 vs alpha tubulin, two biological replicates
Source text: Encouraged by the promising results from the pulldown experiment, and in order to get insight into bioactivity and possible mode of action, we analyzed peptide 33 in a morphological cell painting assay. The cell painting assay is a target agnostic assay which determines a cells morphological profile after treatment with a compound of interest and compares it to the profiles of a set of reference compounds. ^[22] By identifying reference compounds with a similar profile a hypothesis of the compounds mode of action can be generated based on their annotated targets. ^[23] U2OS cells were treated with our compound and 579 parameters were analyzed. […] We therefore synthesized a variant modified with an N‐terminal TAT sequence to enhance its permeability (compound 49, see Table 1 and Supplemental Figure 4). ^[24] […] Applying compound 49 to the cell painting assay led to an induction of 5.9 % and the corresponding profile was compared to the set of 3000 reference compounds. […] To validate this hypothesis, we exposed U2OS cells to compound 49 and evaluated the levels of p53 by Western blot. […]
U2OS cells were incubated with 10 µM compound 49, 50 or DMSO (DMSO 0.5%) for 24 h followed by lysis for western blotting analysis. p53 ex pression was monitored using fluorescent antibody. Signal ration between p53 and loading control (alpha tubulin) was measured. […]

[3] = Table 1, competitive FP, tracer peptide 1 1 nM, RbAp48 15 nM, 20 mM Tris-HCl, 150 mM NaCl, 0.01% Tween-20, pH 7.5, 30 min room temperature, lower limit set by 15 nM protein, read-out: IC50

T1 sequence (Q09028 whole entry): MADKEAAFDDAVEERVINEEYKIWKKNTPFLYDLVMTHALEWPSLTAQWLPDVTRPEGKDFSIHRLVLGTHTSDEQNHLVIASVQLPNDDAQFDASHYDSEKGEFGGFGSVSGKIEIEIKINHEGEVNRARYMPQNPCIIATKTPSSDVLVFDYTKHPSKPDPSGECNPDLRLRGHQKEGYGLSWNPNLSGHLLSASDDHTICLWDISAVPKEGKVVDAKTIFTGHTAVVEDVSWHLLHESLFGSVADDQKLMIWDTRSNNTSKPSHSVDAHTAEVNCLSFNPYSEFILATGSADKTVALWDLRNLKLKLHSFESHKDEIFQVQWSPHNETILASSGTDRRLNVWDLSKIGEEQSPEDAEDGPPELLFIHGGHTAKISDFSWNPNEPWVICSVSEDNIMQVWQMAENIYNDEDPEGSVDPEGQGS

Row | enrichment of RbAp48 in pull-down (RbAp48 [2]) | IC50 (RbAp48 [1]; competitive FP assay, read-out: IC50 / affinity) [µM] | SMILES | IC50 (RbAp48 [1]; [3]) [µM] | FP activity in words (RbAp48 [1]; competitive FP assay) | induction (U2OS cells) [%] | levels of p53 (p53)
1 | successfully able to enrich RbAp48 | – | C[C@H](NC(=O)[C@@H]1CSCc2cc3cc(c2)CSC[C@H](NC(=O)[C@H](CCCNC(=N)N)NC(=O)[C@H](CCCCN)NC(=O)[C@H]([C@@H](C)O)NC(=O)[C@@H](NC(=O)COCCOCCOCCN=[N+]=[N-])CSC3)C(=O)N[C@@H](C)C(=O)N[C@@H](CCCNC(=N)N)C(=O)N[C@@H](CCCNC(=N)N)C(=O)N2CCC[C@H]2C(=O)N[C@@H](Cc2ccc(O)cc2)C(=O)N[C@@H](CCCCN)C(=O)N2CCC[C@H]2C(=O)N1)C(N)=O [Peptide 47] (X1-CTKRCARRPYKPCA-NH2; linker 1-5-13 via TBMB; N-terminus assumed) | 0.0139 ± 0.0056 | – | – | –
2 | no interaction | > 10 | C[C@@H]1NC(=O)[C@H](CCCNC(=N)N)NC(=O)[C@@H]2CCCN2C(=O)[C@@H](NC(=O)COCCOCCOCCN=[N+]=[N-])CSCc2cc3cc(c2)CSC[C@@H](C(=O)N[C@@H](CCCCN)C(N)=O)NC(=O)[C@H](CCCNC(=N)N)NC(=O)[C@@H]2CCCN2C(=O)[C@H](C)NC(=O)[C@H]([C@@H](C)O)NC(=O)[C@H](CCCCN)NC(=O)[C@H](Cc2ccc(O)cc2)NC(=O)[C@H](CCCNC(=N)N)NC(=O)[C@H](CSC3)NC1=O [Peptide 48] (X1-CPRACRYKTAPRCK-NH2; linker 1-5-13 via TBMB; N-terminus assumed) | > 10 | – | – | –
3 | – | – | C[C@H](NC(=O)[C@@H]1CSCc2cc3cc(c2)CSC[C@H](NC(=O)[C@H](CCCNC(=N)N)NC(=O)[C@H](CCCCN)NC(=O)[C@H]([C@@H](C)O)NC(=O)[C@@H](NC(=O)CNC(=O)[C@H](CCC(N)=O)NC(=O)[C@@H]2CCCN2C(=O)[C@H](CCCNC(=N)N)NC(=O)[C@H](CCCNC(=N)N)NC(=O)[C@H](CCCNC(=N)N)NC(=O)[C@H](CCC(N)=O)NC(=O)[C@H](CCCNC(=N)N)NC(=O)[C@H](CCCNC(=N)N)NC(=O)[C@H](CCCCN)NC(=O)[C@H](CCCCN)NC(=O)[C@H](CCCNC(=N)N)NC(=O)CN)CSC3)C(=O)N[C@@H](C)C(=O)N[C@@H](CCCNC(=N)N)C(=O)N[C@@H](CCCNC(=N)N)C(=O)N2CCC[C@H]2C(=O)N[C@@H](Cc2ccc(O)cc2)C(=O)N[C@@H](CCCCN)C(=O)N2CCC[C@H]2C(=O)N1)C(N)=O [Peptide 49] (H-GRKKRRQRRRPQGCTKRCARRPYKPCA-NH2; linker 14-18-26 via TBMB) | 0.0044 ± 0.0014 | slightly more active than its parent compound 33 | 5.9 | increased
4 | – | – | N=C(N)NCCC[C@H](NC(=O)CN)C(=O)N[C@@H](CCCCN)C(=O)N[C@@H](CCCCN)C(=O)N[C@@H](CCCNC(=N)N)C(=O)N[C@@H](CCCNC(=N)N)C(=O)N[C@@H](CCC(N)=O)C(=O)N[C@@H](CCCNC(=N)N)C(=O)N[C@@H](CCCNC(=N)N)C(=O)N[C@@H](CCCNC(=N)N)C(=O)N1CCC[C@H]1C(=O)N[C@@H](CCC(N)=O)C(N)=O [Peptide 50, reference compound] | 1.24 ± 0.358 | weakly inhibit the interaction | – | no increase
